Results: US20200163984A1, “USE OF ISOVALERYL SPIRAMYCIN I, II AND/OR III IN MANUFACTURING MEDICAMENT FOR TREATING AND/OR PREVENTING TUMOR, AND MEDICAMENT” (SHENYANG FUYANG PHARMACEUTICAL TECHNOLOGY CO., LTD., priority 2017, published 2020)
Like-named read-outs stand apart in the source and are kept apart here. Each block holds one molecule with its values, some of them ahead of it.

Experiments:
[1] = tested on: transplanted tumor of human gastric adenocarcinoma cell SGC7901; assay: SGC7901 transplanted tumor in nude mice
Description: (§1) Then cell concentration was adjusted to 1×10^7/ml with matrigel, then each nude mouse was inoculated subcutaneously with 0.2 ml of cells at its right armpit and recorded as the first day of inoculation. When the tumor grows to be greater than or equal to 100 mm^3, the mice were randomly divided into 11 groups with 6 mice in each group: a model group, a cyclophosphamide group, isovaleryl spiramycin I groups with doses of 25, 50 and 100 mg/kg, isovaleryl spiramycin II groups with doses of 25, 50 and 100 mg/kg, and isovaleryl spiramycin III groups with doses of 25, 50 and 100 mg/kg. Each group was continuously administered intragastrically for 30 days with a dose of 20 ml/kg. The mice were sacrificed the next day after drug withdrawal and the indicators were tested. The long diameter and short diameter of the tumor, and the body weight of each mouse were recorded every 3 days from drug administration to nude mouse sacrifice.
(§2) The body weight of the nude mice and the long diameter (a) and short diameter (b) of the transplanted tumor were measured every 3 days, and the tumor volume (v), relative tumor volume (RTV) and relative tumor proliferation rate (T/C) are calculated respectively according to the following formulas, wherein V=a×b^2/2; RTV=V/V0 (V0 is the tumor volume before administration, V is the tumor volume before sacrifice), and T/C (%)=treatment group RTV/model control group RTV×100%.
(§3) Each mouse was weighed and sacrificed. After the tumor was completely stripped off from the body of the mouse, the non-tumor tissues such as blood stains and fat were removed to weigh the tumor and calculate the tumor growth inhibition rate. The average tumor weight of each group of mice is used as an indicator of efficacy. Tumor growth inhibition rate (%)=(1−the average tumor weight of the treatment group/the average tumor weight of the model group)×100%.

[2] = tested on: transplanted tumor of human hepatoma cell HepG-2; assay: HepG-2 transplanted tumor in nude mice
Description: as §1, §2, §3

[3] = tested on: transplanted tumor of human non-small cell lung cancer cell H1299
Description: as §1, with “group:” for “group: a model group, a cyclophosphamide group,”
as §2, §3

[4] = SGC7901, 12.5 mg/kg (low dose) i.g. 30 days
[5] = SGC7901, 25 mg/kg (medium dose) i.g. 30 days
[6] = SGC7901, 50 mg/kg (high dose) i.g. 30 days
[7] = HepG-2, high dose (100 mg/kg in method) i.g. 30 days
[8] = HepG-2, low dose (25 mg/kg in method) i.g. 30 days
[9] = HepG-2, medium dose (50 mg/kg in method) i.g. 30 days
[10] = H1299, 25 mg/kg (low dose) i.g. 30 days
[11] = H1299, 50 mg/kg (medium dose) i.g. 30 days
[12] = H1299, 100 mg/kg (high dose) i.g. 30 days
[13] = HepG-2 nude mice, 30 mg/kg, d30

mouse weight compared with the model group ([1]; mouse, in vivo): no significant changes
mouse weight compared with the model group ([2]; mouse, in vivo): no significant changes
mouse weight compared with the model group ([3]; mouse, in vivo): no significant changes
SMILES: CCC(=O)O[C@@H]1CC(=O)O[C@H](C)C/C=C/C=C/[C@H](O[C@H]2CC[C@H](N(C)C)[C@@H](C)O2)[C@H](C)C[C@H](CC=O)[C@H](O[C@@H]2O[C@H](C)[C@@H](O[C@H]3C[C@@](C)(O)[C@@H](OC(=O)CC(C)C)[C@H](C)O3)[C@H](N(C)C)[C@H]2O)[C@H]1OC [Isovaleryl spiramycin III, isovaleryl spiramycin III]
Inhibition Rate (tumor growth inhibition rate) [1, 4]: 21.68%
Relative Tumor Proliferation Rate (T/C) [1, 4]: 65.48%
Relative Tumor Volume (RTV) [1, 4]: 5.52 ± 4.03
Tumor Volume (d 1) [1, 4]: 186.22 ± 80.26 mm3
Tumor Volume (d 30) [1, 4]: 1326.06 ± 96.10 mm3
Tumor Weight [1, 4]: 1.23 ± 0.70 g
Inhibition Rate (tumor growth inhibition rate) [1, 5]: 41.13%
Relative Tumor Proliferation Rate (T/C) [1, 5]: 49.44%
Relative Tumor Volume (RTV) [1, 5]: 3.77 ± 6.51
Tumor Volume (d 1) [1, 5]: 274.12 ± 83.50 mm3
Tumor Volume (d 30) [1, 5]: 1473.96 ± 798.75 mm3
Tumor Weight [1, 5]: 0.92 ± 0.40 g
Inhibition Rate (tumor growth inhibition rate) [1, 6]: 63.34%
Relative Tumor Proliferation Rate (T/C) [1, 6]: 30.34%
Relative Tumor Volume (RTV) [1, 6]: 3.66 ± 1.35
Tumor Volume (d 1) [1, 6]: 295.39 ± 188.69 mm3
Tumor Volume (d 30) [1, 6]: 974.67 ± 839.14 mm3
Tumor Weight [1, 6]: 0.58 ± 0.52 g
tumor volume and relative tumor volume compared with the model group ([1]; SGC7901, low, medium and high doses, P<0.05): significantly lower
Relative Tumor Proliferation Rate (T/C) [2, 7]: 32.71%
tumor growth inhibition rate [2, 7]: 63.28%
Relative Tumor Proliferation Rate (T/C) [2, 8]: 64.69%
tumor growth inhibition rate [2, 8]: 38.92%
tumor volume and relative tumor volume compared with the model group ([2]; HepG-2, low, medium and high doses, P<0.05): significantly lower
Relative Tumor Proliferation Rate (T/C) [2, 9]: 43.18%
tumor growth inhibition rate [2, 9]: 60.54%
Inhibition Rate (%) ([2]; HepG-2 nude mice, 25 mg/kg): 38.92%
Relative Tumor Proliferation Rate (T/C) ([2]; HepG-2 nude mice, 25 mg/kg): 64.69%
Relative Tumor Volume (RTV) ([2]; HepG-2 nude mice, 25 mg/kg): 10.83 ± 2.47
Tumor Weight ([2]; HepG-2 nude mice, 25 mg/kg): 1.48 ± 0.42 g
Tumor Volume (mm3) (d 1) ([2]; HepG-2 nude mice, 25 mg/kg, d1): 116.67 ± 8.32 mm3
Tumor Volume (mm3) (d30) ([2]; HepG-2 nude mice, 25 mg/kg, d30): 1261.48 ± 283.95 mm3
Inhibition Rate (%) ([2]; HepG-2 nude mice, 50 mg/kg): 60.54%
Relative Tumor Proliferation Rate (T/C) ([2]; HepG-2 nude mice, 50 mg/kg): 43.18%
Relative Tumor Volume (RTV) ([2]; HepG-2 nude mice, 50 mg/kg): 7.23 ± 2.57
Tumor Weight ([2]; HepG-2 nude mice, 50 mg/kg): 0.96 ± 0.44 g
Tumor Volume (mm3) (d 1) ([2]; HepG-2 nude mice, 50 mg/kg, d1): 119.43 ± 10.86 mm3
Tumor Volume (mm3) (d30) ([2]; HepG-2 nude mice, 50 mg/kg, d30): 852.87 ± 293.29 mm3
Inhibition Rate (%) ([2]; HepG-2 nude mice, 100 mg/kg): 63.28%
Relative Tumor Proliferation Rate (T/C) ([2]; HepG-2 nude mice, 100 mg/kg): 32.71%
Relative Tumor Volume (RTV) ([2]; HepG-2 nude mice, 100 mg/kg): 5.48 ± 3.19
Tumor Weight ([2]; HepG-2 nude mice, 100 mg/kg): 0.89 ± 0.46 g
Tumor Volume (mm3) (d 1) ([2]; HepG-2 nude mice, 100 mg/kg, d1): 118.26 ± 6.57 mm3
Tumor Volume (mm3) (d30) ([2]; HepG-2 nude mice, 100 mg/kg, d30): 641.99 ± 364.25 mm3
Body Weight (g) (d1) ([2]; mouse, in vivo, 25 mg/kg): 21.07 ± 1.24 g
Body Weight (g) (d30) ([2]; mouse, in vivo, 25 mg/kg): 23.94 ± 1.67 g
Body Weight (g) (d1) ([2]; mouse, in vivo, 50 mg/kg): 21.25 ± 1.86 g
Body Weight (g) (d30) ([2]; mouse, in vivo, 50 mg/kg): 24.36 ± 1.53 g
Body Weight (g) (d1) ([2]; mouse, in vivo, 100 mg/kg): 20.47 ± 2.24 g
Body Weight (g) (d30) ([2]; mouse, in vivo, 100 mg/kg): 23.64 ± 1.44 g
Inhibition Rate (tumor growth inhibition rate) [3, 10]: 13.11%
Relative Tumor Proliferation Rate (T/C) [3, 10]: 89.88%
Relative Tumor Volume (RTV) [3, 10]: 11.52 ± 2.51
Tumor Volume (d 1) [3, 10]: 137.58 ± 14.95 mm3
Tumor Volume (d 30) [3, 10]: 1565.97 ± 277.97 mm3
Tumor Weight [3, 10]: 1.51 ± 0.30 g
Inhibition Rate (tumor growth inhibition rate) [3, 11]: 49.38%
Relative Tumor Proliferation Rate (T/C) [3, 11]: 48.11%
Relative Tumor Volume (RTV) [3, 11]: 6.17 ± 2.64
Tumor Volume (d 1) [3, 11]: 137.82 ± 17.12 mm3
Tumor Volume (d 30) [3, 11]: 816.87 ± 299.03 mm3
Tumor Weight [3, 11]: 0.88 ± 0.20 g
Inhibition Rate (tumor growth inhibition rate) [3, 12]: 62.78%
Relative Tumor Proliferation Rate (T/C) [3, 12]: 32.43%
Relative Tumor Volume (RTV) [3, 12]: 4.16 ± 1.90
Tumor Volume (d 1) [3, 12]: 137.09 ± 12.95 mm3
Tumor Volume (d 30) [3, 12]: 557.82 ± 209.73 mm3
Tumor Weight [3, 12]: 0.65 ± 0.17 g
tumor volume and relative tumor volume compared with the model group ([3]; H1299, low, medium and high doses, P<0.05): significantly lower

SMILES: O=P1(N(CCCl)CCCl)NCCCO1 (stereo not drawn) [Cyclophosphamide, cyclophosphamide, reference compound]
Body Weight (d 1) ([1]; SGC7901, 30 mg/kg i.g. 30 days): 22.63 ± 1.35 g
Body Weight (d 30) ([1]; SGC7901, 30 mg/kg i.g. 30 days): 19.85 ± 0.72 g
Inhibition Rate (tumor growth inhibition rate) ([1]; SGC7901, 30 mg/kg i.g. 30 days): 72.26%
Relative Tumor Proliferation Rate (T/C) ([1]; SGC7901, 30 mg/kg i.g. 30 days): 30.71%
Relative Tumor Volume (RTV) ([1]; SGC7901, 30 mg/kg i.g. 30 days): 4.27 ± 2.36
Tumor Volume (d 1) ([1]; SGC7901, 30 mg/kg i.g. 30 days): 252.63 ± 74.57 mm3
Tumor Volume (d 30) ([1]; SGC7901, 30 mg/kg i.g. 30 days): 865.27 ± 422.15 mm3
Tumor Weight ([1]; SGC7901, 30 mg/kg i.g. 30 days): 0.44 ± 0.41 g
Inhibition Rate (%) ([2]; HepG-2 nude mice, 30 mg/kg): 71.04%
Relative Tumor Proliferation Rate (T/C) ([2]; HepG-2 nude mice, 30 mg/kg): 39.27%
Relative Tumor Volume (RTV) ([2]; HepG-2 nude mice, 30 mg/kg): 6.58 ± 2.18
Tumor Weight ([2]; HepG-2 nude mice, 30 mg/kg): 0.07 ± 0.38 g
Body Weight (g) (d1) ([2]; HepG-2 nude mice, 30 mg/kg, d1): 21.89 ± 1.84 g
Tumor Volume (mm3) (d 1) ([2]; HepG-2 nude mice, 30 mg/kg, d1): 119.66 ± 7.65 mm3
Body Weight (g) (d30) [2, 13]: 19.67 ± 1.49 g
Tumor Volume (mm3) (d30) [2, 13]: 792.56 ± 287.31 mm3
Body Weight (d 1) ([3]; H1299, 30 mg/kg i.g. 30 days): 21.83 ± 0.33 g
Body Weight (d 30) ([3]; H1299, 30 mg/kg i.g. 30 days): 23.72 ± 2.41 g
Inhibition Rate (tumor growth inhibition rate) ([3]; H1299, 30 mg/kg i.g. 30 days): 78.00%
Relative Tumor Proliferation Rate (T/C) ([3]; H1299, 30 mg/kg i.g. 30 days): 22.72%
Relative Tumor Volume (RTV) ([3]; H1299, 30 mg/kg i.g. 30 days): 2.91 ± 0.95
Tumor Volume (d 1) ([3]; H1299, 30 mg/kg i.g. 30 days): 135.46 ± 16.48 mm3
Tumor Volume (d 30) ([3]; H1299, 30 mg/kg i.g. 30 days): 384.21 ± 106.99 mm3
Tumor Weight ([3]; H1299, 30 mg/kg i.g. 30 days): 0.38 ± 0.08 g
